The values that follow come from patent publication US4183930A, “Amino derivatives of pyrazolo [1,5-a]s-triazine, and their therapeutic applications” (Aron S.A., priority 1978, dated 1980).

Each structure is given as a SMILES string. Like-named read-outs stand apart in the source and are kept apart here.

For data set [1], the system named is mice. Conditions: mouse, in vivo.
For data set [2], the system named is anaphylactic shock in mice. Description: Protective effect against anaphylactic shock in mice. In kind it is in vivo, mouse. Conditions: 100 mg/kg i.p., 30 min prior to albumin; for responders at 100 mg/kg: Mus musculus, ip, 0.5 h, read-out: % surviving animals; for Number of dead animals: dead/total. How it is done: (a) Protective effect against anaphylactic shock in mice
The protective effect against anaphylactic shock was investigated according to the technique disclosed by Duhault and co-workers (Arzneim. Forschung, 1972, II, 1947). Four weeks after sensitization to bovine albumin, intravenous injection of 0.3 mg bovine albumin in mice causes a fatal anaphylactic shock within the 30 minutes which follow said injection.
The protective effect of compounds of the formula (I), on intraperitoneal administration, at a dosage of 100 mg/kg 30 minutes prior to albumin injection is illustrated in Table III.

Another data set can be described thus: in vivo. Conditions: mouse.
The next data set concerns humans. Description: First clinical tests in humans. In kind it is in vivo, human. An excerpt: The first clinical tests provided the following data:
(2) In clinical pharmacology, functional respiratory exploration determinations provided the same bronchodilator effect found in animals.

For data set [3], the system named is isolated trachea of guinea-pigs. Put plainly: Dilatation of the isolated trachea of guinea-pigs (Castillo & De Beer). Also noted: species or system guinea-pig. Conditions: 10 γ/ml, tensile load 500 mg; for % dilatation (tensile variation with respect to the activity of theophylline taken as 100%): relative to theophylline = 100%. How it is done:
(a) Action on the isolated trachea of guinea-pigs The trachea is prepared according to the technique disclosed by Castillo & De Beer (J. Pharmacol. Exper. […] The organ is submitted to a tensile load of 500 mg.

Data set [4] has as its system passive cutaneous anaphylaxis in rats. Put plainly: Protective effect against passive cutaneous anaphylaxis (PCA) in rats. Conditions: Rattus norvegicus, ip, 100 mg/kg i.p., 30 min prior to ovalbumin injection, read-out: % Protection (with respect to the controls). It counts as in vivo. The procedure:
(b) Protective effect against passive cutaneous anaphylaxis in rats
The protective effect against passive cutaneous anaphylaxis (PCA) in rats were investigated according to the technique disclosed by Rosenthale and co-workers (J. Pharm. Exp. Therap. 1976, 197, 725-733). Antisera were prepared by sub-cutaneous injection of 1 mg/ml ovalbumin and by intraperitoneal injection of b 30×10^9 /ml Bacillus pertussis. The PCA reaction was visualized on intravenous injection of antigen (ovalbumin) and Evans Blue in rats which had been intradermally administered the antiserum (4 injections in the shaved back of each rat) 72 hours previously. The protective effect obtained on intraperitoneal administration of the compounds at a dosage of 100 mg/kg 30 minutes prior to ovalbumin injection is set forth in Table IV.
To determine the percent protection, the length of the longest diameter o
the spot and the length of the diameter perpendicular thereto are
measured. The product is expressed as mm^2.

The next data set relates to rats. Description: Chronic toxicity in rats, orally, 3 months. It counts as in vivo, rat. Conditions: 3 months, 25, 100 and 300 mg/kg.
For data set [5], the system named is bronchospasm induced by acetylcholine, serotonine and histamine. Description: Prevention of bronchospasm in anesthetized guinea-pigs (Konzett and Rossler). Conditions: Cavia porcellus, iv, spasm by acetylcholine (10-20 γ/kg i.v.), serotonine (5 γ/kg i.v.) and histamine (10 γ/kg i.v.), read-out: ED100 (dosage providing 100% inhibition of the spasm). It counts as in vivo, guinea-pig.

The test system of another data set is dogs. Description: Chronic toxicity in dogs, 1 month. In kind it is in vivo, dog. Conditions: 20 and 160 mg/kg.
The subject of data set [6] is mice. Description: Acute toxicity in mice. Conditions: dosage 1000 mg/kg.
Setting [7] is: Series 2 (controls 50% surviving).
[8] abbreviates: Series 3 (controls 25% surviving).
Where [9] appears, read: Series 4 (controls 30% surviving).

By LD50 is commonly meant the dose at which mortality reaches 50%. A higher LD50 goes with a less toxic substance. Regarding `Nc1nc(N)n2nccc2n1` [Example 1, 2,4-Diamino-pyrazolo[1,5-a]s.triazine], the “Number of dead animals at the dosage indicated, i.v.” value in the data set with mice [1] was “no”. For the same compound, in data set [2] (Series 1 (controls 20% surviving)), the responders at 100 mg/kg was 50%. The “Number of dead animals” value in data set [2] (mice sensitized to bovine albumin, Series 1 (controls 16/20)) is on record as 10/20. The same compound displayed a median lethal dose (LD50) in “in vivo” (po) of 1250 mg/kg. Further, in the data set with humans, the tolerance in humans result is reported as “good tolerance”. In [3], the “Tensile variation” value is -60 mg and the “% dilatation (tensile variation with respect to the activity of theophylline taken as 100%)” value (“% dilatation” for short) is given as 67%. The inhibition in vivo at 100 mg/kg in data set [4] was 42%. Moreover, the “alteration of the biological constants / histological injury of the various organs” value in the data set on rats was “neither alteration of the biological constants nor histological injury of the various organs”. In addition, the ED100 in data set [5] lay in the range of 20 to 25 mg/kg.
With `Cc1cc2nc(N)nc(N)n2n1` [Example 2, 2,4-Diamino-7-methyl-pyrazolo[1,5-a]s.triazine], the “Number of dead animals” value in data set [2] (Series 2 (controls 10/20)) was 2/21. Moreover, the responders at 100 mg/kg in data set [2] (setting [7]) was determined as 90.5%. Moreover, the values for the LD50 in the data set “in vivo” (iv) and in “in vivo” (po) were 380 mg/kg and 900 mg/kg, respectively. The “alteration of the biological constants / histological injury of the various organs” value in the data set on dogs and in the data set on rats was “neither alteration of the biological constants nor histological injury of the various organs” in each case. For the same compound, the tolerance in humans result in the data set with humans is listed as “good tolerance”. Moreover, the “Tensile variation” value in [3] is reported as -100 mg. Besides, the “% dilatation” value in [3] was 111%. Also, in data set [4], the inhibition in vivo at 100 mg/kg was found to be 56%. In [5], the ED100 is 15 to 20 mg/kg.
In the case of `CCc1nn2c(N)nc(N)nc2c1C` [Example 3, 2,4-Diamino-7-ethyl-8-methyl-pyrazolo[1,5-a]s.triazine], the “Number of dead animals” value in data set [2] (Series 3 (controls 15/20)) is reported as 6/19. Further, the responders at 100 mg/kg in [2] (setting [8]) turned out to be 68.5%. This compound also showed an LD50 in “in vivo” (po) of 200 mg/kg. Besides, in [3], the “Tensile variation” value was -100 mg and the “% dilatation” value came out at 111%. In addition, in data set [4], the inhibition in vivo at 100 mg/kg is 92%.
`CNc1nc(N)nc2cc(C)nn12` [Example 4, 2-Amino-4-methylamino-7-methyl-pyrazolo[1,5-a]s.triazine] came in with an LD50 p.o. with mice [1] (po) of 1000 mg/kg. In data set [2] (Series 3 (controls 15/20)), the “Number of dead animals” value was 9/20. Besides, the responders at 100 mg/kg in [2] (setting [8]) was 55%. In addition, the LD50 in the data set “in vivo” (iv) is 300 mg/kg. For the same compound, in the data set on humans, the tolerance in humans entry is listed as “good tolerance”. In [3], the “Tensile variation” value is given as -153 mg and the “% dilatation” value came out at 170%. Moreover, the inhibition in vivo at 100 mg/kg in data set [4] is 92%. The “alteration of the biological constants / histological injury of the various organs” value in the data set with rats is recorded as “neither alteration of the biological constants nor histological injury of the various organs”.
For the compound `CNc1nc(NC)n2nc(C)cc2n1` [Example 5, 2,4-Bis-(methylamino)-7-methyl-pyrazolo[1,5-a]s.triazine], the LD50 in the data set “in vivo” (po) came out at 300 mg/kg. Besides, in data set [3], the “Tensile variation” value is given as -207 mg and the “% dilatation” value is reported as 230%. The inhibition in vivo at 100 mg/kg in [4] was determined as 83%. Further, the ED100 in data set [5] worked out at 10 mg/kg.
Turning to `Cc1cc2nc(N)nc(NC(C)C)n2n1` [Example 6, 2-amino-4-isopropylamino-7-methyl-pyrazolo[1,5-a]s.triazine methane sulfonate], the “Number of dead animals at the dosage indicated, p.o.” value (shortened to “Number of dead animals … p.o.”) in the data set on mice [1] was “one”. Further, in data set [2] (Series 3 (controls 15/20)), the “Number of dead animals” value is given as 12/20. For the same compound, the responders at 100 mg/kg in data set [2] (setting [8]) is 40%. In data set [3], the “Tensile variation” value was -200 mg and the “% dilatation” value is on record as 220%. Besides, the ED100 in [5] is 5 mg/kg.
For `C=CCNc1nc(N)nc2cc(C)nn12` [Example 7, 2-Amino-4-allylamino-7-methyl-pyrazolo[1,5-a]s.triazine], the “Number of dead animals at the dosage indicated, i.v.” value with mice [1] was “no”. For the same compound, in data set [2] (Series 4 (controls 14/20)), the “Number of dead animals” value is listed as 2/20. Also, the responders at 100 mg/kg in [2] (setting [9]) was 90%. For the same compound, in “in vivo” (po), the median lethal dose (LD50) was 1200 mg/kg. In data set [3], the “Tensile variation” value is listed as -180 mg and the “% dilatation” value is on record as 200%. For the same compound, the inhibition in vivo at 100 mg/kg in data set [4] was found to be 71%. The ED100 in [5] is 5 mg/kg.
`Cc1cc2nc(N)nc(NCC3CCCO3)n2n1` (centres unmarked) [Example 8, 2-Amino-4-tetrahydrofurfurylamino-7-methyl-pyrazolo[1,5-a]s.triazine]: the “Number of dead animals … p.o.” value in the data set with mice [1] is reported as “two”. Besides, the “Number of dead animals” value in data set [2] (Series 4 (controls 14/20)) is 6/21. In addition, the responders at 100 mg/kg in data set [2] (setting [9]) came to 71%. In data set [3], the “Tensile variation” value was -72 mg and the “% dilatation” value worked out at 80%. Besides, the inhibition in vivo at 100 mg/kg in [4] was found to be 54%.
For the compound `CCCNc1nc(N)nc2cc(C)nn12` [Example 9], in the data set with mice [6], the “Number of dead animals … p.o.” value was “one”. In data set [4], the inhibition in vivo at 100 mg/kg amounted to 69%.
As to `Cc1cc2nc(N)nc(NC(C)(C)C)n2n1` [Example 10], the “Number of dead animals … p.o.” value in the data set with mice [6] is listed as “one”. For the same compound, the inhibition in vivo at 100 mg/kg in [4] was determined as 50%.
Consider `C=CCNc1nc(N)nc2ccnn12` [Example 11], for which the “Number of dead animals … p.o.” value with mice [6] is listed as “one”.
With `Cn1c(=O)c2[nH]cnc2n(C)c1=O` [Theophylline, reference compound], in data set [2] (Series 2 (controls 10/20)), the “Number of dead animals” value is 4/20. Moreover, the responders at 100 mg/kg in data set [2] (setting [7]) is 80%. Moreover, in [3], the “Tensile variation” value is on record as -90 mg. Also, the inhibition in vivo at 100 mg/kg in data set [4] amounted to 72%. Besides, in data set [5], the ED100 was in the range of 20 to 25 mg/kg.
